Source: US20160310584A1, “FORMULATIONS FOR NEOPLASIA VACCINES” (THE BROAD INSTITUTE INC., priority 2013, published 2016)
Where two headings read alike, the source gives them in different places. Where a SMILES comes first, the peptide text is derived from it. Where no end group is shown, it is not given here.

Columns and labels:
Type in all cases: physicochemical
[1] = Peptide solubility evaluation: dissolution in DMSO, dilution in D5W with or without succinate
Method: (§1) In a representative procedure, peptides were weighed and corrected for % peptide content, and then dissolved in DMSO to a concentration of 50 mg/mL. The DMSO/Peptide solution was then diluted with 5 mM sodium succinate in D5W to a 2 mg/mL peptide concentration.
Additional peptide solubility conditions were tested. Peptides CS6709, CS6712, CS6720, CS6726, and CS6783 were weighed at approximately 10 mg each. The peptides were then dissolved in approximately 200 μL USP grade DMSO to obtain a 50 mg/mL concentration for each peptide. […] Additional 50 μL increments of DMSO were added to Peptide CS6709 up to 400 μL; for a total of 600 μL of DMSO.
Based on gross weight and peptide content, 15 mg (net weight) or slightly more of each individual peptide are weighed and 100% USP Grade DMSO […] is added to achieve a final peptide concentration of 50 mg/ml.

[2] = pH of peptide solutions
Method: as §1

[3] = Dissolution of peptide in D5W without using DMSO; details: small amount of peptide (<1 mg)
[4] = Freeze/thaw and frozen storage stability (RP-HPLC, pH, visual inspection); details: −20° C. stability study
Method: Two individual peptides were dissolved in DMSO/D5W and placed on stability at two temperatures (−20° C. and −80° C.). These peptides were evaluated (RP-HPLC and pH and visual inspection) for up to 24 weeks. […] Any small changes appear to be due to assay variability as no trends were noted to be evaluated.
A peptide pool (Pool 4) consisting of five peptides was prepared by dissolution in DMSO, dilution with D5W/Succinate (5 mM) to 2 mg/ml and pooling to a final peptide concentration of 400 μg per ml and a final DMSO concentration of 4%. After preparation, peptides were filtered with a 25 mm Pall PES filter (Cat #4612) and dispensed into Nunc Cryo vials (#375418) in one ml aliquots. Samples were analyzed at time zero and at 2 and 4 weeks to date. Additional samples are analyzed at 8 and 24 weeks.

[5] = DMSO/D5W, Table 4, Y/N, diluted to 2 mg/ml, read-out: Solubility In DMSO/D5W
[6] = DMSO/D5W/succinate, Table 4, Y/N, read-out: Solubility in DMSO/D5W/Succinate
[7] = Table 4, Y/N, diluted to 2 mg/ml, read-out: Solubility In DMSO/D5W
[8] = Table 4, symbol X not defined, peptides dissolved at 50 mg/ml in 100% DMSO, read-out: Solubility in DMSO

Row | solubility [1, 5] | Compound | pH of peptides in DMSO/D5W/5 mM S. Succinate spike [2] | pH of peptides in DMSO/D5W/5 mM Succinate and Hiltonol [2] | other results
1 | > 2 mg/mL | CC[C@H](C)[C@H](NC(=O)[C@H](CS)NC(=O)[C@H](CC(C)C)NC(=O)[C@@H](N)CC(=O)O)C(=O)N[C@@H](CS)C(=O)N1CCC[C@H]1C(=O)N[C@@H](CCCNC(=N)N)C(=O)N[C@@H](CO)C(=O)N[C@@H](Cc1c[nH]cn1)C(=O)N[C@@H](CCCNC(=N)N)C(=O)NCC(=O)N[C@@H](C)C(=O)N[C@@H](Cc1ccccc1)C(=O)N[C@@H](CCC(N)=O)C(=O)N[C@@H](CC(C)C)C(=O)N[C@@H](CC(C)C)C(=O)N1CCC[C@H]1C(=O)N[C@@H](CO)C(=O)N[C@@H](C)C(=O)N[C@@H](CC(C)C)C(=O)N[C@@H](CC(C)C)C(=O)N[C@H](C(=O)N[C@@H](CCCNC(=N)N)C(=O)N[C@H](C(=O)N[C@@H](CC(C)C)C(=O)N[C@@H](CCC(=O)O)C(=O)NCC(=O)N[C@@H](CO)C(=O)N[C@@H](CC(=O)O)C(=O)N[C@@H](CO)C(=O)O)C(C)C)C(C)C [CS6932] (H-DLCICPRSHRGAFQLLPSALLVRVLEGSDS-OH) | – | – | –
2 | – | H-AESAQRQGPLGGGEQSANEF-OH [CS7417] | 6.28 | 6.5 | solubility [1]: > 2 mg/mL; solubility [1, 6]: > 2 mg/mL
3 | – | H-AESAQRQGPNGGGEQSANEF-OH [CS7416] | 6.31 | 6.54 | –
4 | – | H-AHRQGEKQHLLPVFSRLALRLPWRHSVQL-OH [CS6941] | 6.49 | 6.78 | –
5 | – | H-ALSLTPGLRIGPSGLFLVFLAESAVDKGHPNRS-OH [CS7410] | 6.46 | 6.88 | –
6 | > 2 mg/mL | H-APALGPGAASVASRCGLDPALAPGGSHMLRA-OH [CS6927] | – | – | –
7 | < 2 mg/mL | H-DASDFLPDTQLFPHFTELLLPLDPLEGSSV-OH [CS6935] | – | – | –
8 | > 2 mg/mL | H-DMAWRRNSRLYWLIKMVEQWQEQHLPSLSS-OH [CS6943] | – | – | –
9 | > 2 mg/mL | H-DSAVDKGHPNRSALSLTPGLRIGPSGIPQAGLG-OH [CS6726] | – | – | Dissolution directly in D5W without using DMSO [3]: could be dissolved
10 | – | H-DSAVDKGHPNRSALSLTPGLRIGPSGLFLVFLA-OH [CS7411] | 6.53 | 6.94 | –
11 | – | H-EDLHLLSVPCPSYKKLPLLIFPSHRRAPLLSA-OH [CS6918] | – | – | solubility [1, 7]: > 2 mg/mL
12 | > 2 mg/mL | H-EEGLLPEVFGAGVPLALCPAVPSAAKPHRPRVL-OH [CS6933] | – | – | –
13 | > 2 mg/mL | H-EPDQEAVQSSTYKDCNTLHLPTERFSPVR-OH [CS6710] | – | – | –
14 | > 2 mg/mL | H-FRLIWRSVKNGKSSREQELSWNCSHQVPSLGA-OH [CS6917] | – | – | –
15 | > 2 mg/mL | H-GASRRSSASQGAGSLGLSEEKTLRSGGGP-OH [CS6781] | – | – | –
16 | > 2 mg/mL | H-GKSRGQQAQDRARHAAGAAPARPLGALREQ-OH [CS6938] | – | – | –
17 | > 2 mg/mL | H-GLLSDGSGLGQITWASAEHLQRPGAGAELA-OH [CS6914] | – | – | –
18 | – | H-GTKALQLHSIAGRWPRMEPWVVESMSLGVP-OH [CS7415] | 6.61 | 6.81 | –
19 | > 2 mg/mL | H-GTYLQGTASALSQSQERPPSVNRVPPSSPSSQE-OH [CS6725] | – | – | –
20 | – | H-IGALNPKRAAFFAEHYESWE-OH [CS7420] | 6.38 | 6.56 | solubility [1]: > 2 mg/mL
21 | > 2 mg/mL | H-KKEKAEKLEKERQRHISKPLLGGPFSLTTHTGE-OH [CS6718] | – | – | –
22 | – | H-KKNITNLSRLVVRPDTDAVY-OH [CS7431] | 6.45 | 6.69 | –
23 | – | H-KLAWRGRISSSGCPSMTSPPSPMFGMTLHT-OH [CS6919] | 6.74 | 6.99 | Heterodimer formation (mass spectrometry) [4]: can form a heterodimer
24 | > 2 mg/mL | H-KPKKVAGAATPKKSIKRTPKKVKKPATAAGTKK-OH [CS6717] | – | – | –
25 | > 2 mg/mL | H-LAASGLHGSAWLVPGEQPVSGPHHGKQPAGV-OH [CS6930] | – | – | –
26 | – | H-LKDSNSWPPSNKRGFDTEDAHKSNATPVP-OH [CS6712] | – | – | Dissolution directly in D5W without using DMSO [3]: could be dissolved
27 | – | H-LLTDRNTSGTTFTLLGVSDYPELQVP-OH [CS7409] | 6.32 | 6.62 | solubility [1]: > 2 mg/mL; solubility [1, 6]: > 2 mg/mL

Row | solubility [1, 5] | Compound | pH of peptides in DMSO/D5W/5 mM S. Succinate spike [2] | pH of peptides in DMSO/D5W/5 mM Succinate and Hiltonol [2] | other results
28 | – | H-LLTDRNTSGTTFTLLGVSDYPELQVPIPQAGLG-OH [CS7408] | 6.31 | 6.75 | solubility [1]: > 2 mg/mL; solubility [1, 6]: > 2 mg/mL
29 | – | H-LPVFIGNIAVNHAPVSLRPGLGLPPGAPPGTVP-OH [CS7438] | 6.78 | 6.96 | –
30 | > 2 mg/mL | H-LPVFIGNIAVNHAPVSLRPGLGLPPGAPPLVVP-OH [CS6730] | – | – | –
31 | – | H-LRVFIGNIAVNHAPVSLRPGLGLPPGAPPGTVP-OH [CS7412] | 6.61 | 6.96 | solubility [1]: > 2 mg/mL
32 | < 2 mg/mL | H-LSVPFTCGVNFGDSIEDLEI-OH [CS7428] | – | – | –
33 | – | H-LTDLPGRIRVAPQQNDLDSPQQISISNAE-OH [CS6709] | – | – | Dissolution directly in D5W without using DMSO [3]: could be dissolved; solubility [1, 8]: < 50 mg/mL
34 | > 2 mg/mL | H-PIERVKKNLLKKEYNVSDDSMKLGGNNTSEKAD-OH [CS6721] | – | – | –
35 | > 2 mg/mL | H-PIQVFYTKQPQNDYLHVALVSVFQIHQEAPSSQ-OH [CS6729] | – | – | –
36 | – | H-PLMQTELHQLVPEADPEEMA-OH [CS7430] | 6.23 | 6.37 | –
37 | > 2 mg/mL | H-PPYPYSSPSLVLPTEPHTPKSLQQPGLPS-OH [CS6715] | – | – | –
38 | > 2 mg/mL | H-PQLAGGGGSGAPGEHPLLPGGAPLPAGLF-OH [CS6716] | – | – | –
39 | > 2 mg/mL | H-RGLHSQGLGRGRIAMAQTAGVLRSLEQEE-OH [CS6711] | – | – | –
40 | – | H-SGQPAPEETVLFLGLLHGLLLILRRLRGG-OH [CS6937] | 6.51 | 6.76 | solubility [1]: > 2 mg/mL
41 | > 2 mg/mL | H-SHVEKAHITAESAQRQGPNGGGEQSANEF-OH [CS6708] | – | – | –
42 | > 2 mg/mL | H-SKLPYPVAKSGKRALARGPAPTEKTPHSGAQLG-OH [CS6719] | – | – | –
43 | – | H-SKRGVGAKTLLLPDPFLFWPCLEGTRRSL-OH [CS6934] | 6.57 | 6.79 | Heterodimer formation (mass spectrometry) [4]: can form a heterodimer
44 | > 2 mg/mL | H-SPTEPSTKLPGFDSCGNTEIAERKIKRIYGGFK-OH [CS6720] | – | – | Dissolution directly in D5W without using DMSO [3]: could be dissolved
45 | > 2 mg/mL | H-SYDSVIRELLQKPNVRVVVL-OH [CS7425] | 6.44 | 6.65 | solubility [1, 6]: < 2 mg/mL; solubility [1, 8]: < 50 mg/mL
46 | – | H-SYKKLPLLIFPSHRRAPLLSATGDRGFSV-OH [CS6936] | – | – | solubility [1, 7]: > 2 mg/mL
47 | – | H-VAGLAASGLHGSAWLVPGEQPVSGPHHGKQ-OH [CS6931] | 6.42 | 6.66 | –
48 | – | H-VEQGHVRVGPDVVTHPAFLV-OH [CS7427] | 6.34 | 6.52 | –
49 | – | H-VQLSIQDVIRRARLSTVPTAQRVALRSGWI-OH [CS7413] | 6.73 | 7.02 | –
50 | < 2 mg/mL | H-VSWGKKVQPIDSILADWNEDIEAFEMMEKD-OH [CS6942] | – | – | –
51 | – | H-WDGPPENDMLLKEICGSLIP-OH [CS7432] | 6.22 | 6.45 | –
52 | – | H-YLLPKTAVVLRCPALRVRKP-OH [CS7418] | 6.76 | 6.96 | –
53 | – | KGASLDAGWGSPRWTTTRMTSASAGRSTRA [CS7414] | 6.71 | 6.99 | Solubility in DMSO/D5W/Succinate [1]: Y
